# Results from patent publication US20190203240A1, “METHODS FOR THE PRODUCTION OF RHAMNOSYLATED FLAVONOIDS” (Universitaet Hamburg, priority 2016, published 2019).
# Where “and” joins values, the source holds several entries; their conditions need not be identical. Equal values may be shown once.
# What was measured:
# HaCaT cells = assay: Glucose uptake (2-NBDG) in HaCaT keratinocytes; type: cell-based; conditions: +2NBDG 50 μM, 24 h
# Experimental: HaCaT cells (5×10^4) were seeded in 96-well black plates and incubated for 24 h. Then, medium was removed and the cells cultivated in OptiMEM, labeled with 50 μM 2-NBDG (2-[N-(7-nitrobenz-2-oxa-1,3-diazol-4-yl) amino]-2-deoxy-D-glucose and treated with the test substances or the positive control, Rosiglitazone, for 24 h. Medium was removed and the wells were carefully washed with PBS and incubated in PBS (100 μl/well). Finally the fluorescence was measured using the Incucyte FLR software, the data were analyzed by the total green object integrated intensity (GCU×μm2×Well) of the imaging system IncuCyte HD (Essen BioScience). The fluorescence of Rosiglitazone is taken as 100% of glucose uptake, and the glucose uptake was calculated as (% Glucose uptake)=100(T−B)/(R−B), where T (treated) is the fluorescence of test substance-treated cells, B (Basal) is the fluorescence of 2-NBDG cells and […] is the fluorescence of cells treated with Rosiglitazone.
# STAT3 = STAT3 activity in HeLa-STAT3-luc cells stimulated with IFN-γ (luciferase); type: cell-based; conditions: +IFNγ 25 U/ml
# Experimental: HeLa-STAT3-luc cells were stably transfected with the plasmid 4×M67 pTATA TK-Luc. Cells (20×10^3 cells/ml) were seeded 96-well plate the day before the assay. Then the cells were treated with the test substances for […] and then stimulated with IFN-γ 25 IU/ml. After 6 h, the cells were washed twice with PBS and lysed in […] lysis buffer containing 25 mM Tris-phosphate (pH 7.8), 8 mM MgCl2, 1 mM DTT, 1% Triton X-100, and 7% glycerol during […] at RT in a horizontal shaker. Luciferase activity was measured using GloMax 96 microplate luminometer (Promega) following the instructions of the luciferase assay kit (Promega, Madison, Wis., USA). […] The experiments for each concentration of the test items were done in triplicate wells.
# IL-8 = assay: Anti-inflammatory potential: secreted IL-8 in stimulated NHEK (ELISA); type: cell-based, human; conditions: 100 μM; for Cytokine [pg/mL] IL-8: single values
# Experimental: NHEK were pre-incubated for 24 h with the test compounds. The medium was replaced with the NHEK culture medium containing the inflammatory inducers (PMA or Poly I:C) and incubated for another 24 hours. Positive and negative controls ran in parallel. At the endpoint the culture supernatants were quantified of secreted IL-8, PGE2 and TNF-α, by means of ELISA.
# VEGF = assay: Stimulation of VEGF release in NHDF (ELISA); type: cell-based, human; conditions: 72 hours, 100 μM
# Experimental: Tests were performed with normal human dermal fibroblast cultures at the 8th passage. Cells were grown in DMEM supplemented with glutamine at 2 mM, penicillin at 50 U/mL and streptomycin (50 μg/mL) and 10% of fetal calf serum (FCS) at 37° C. in a 5% CO2 atmosphere.
# Fibroblasts were cultured for 24 hours before the cells were incubated with the test compounds for further 72 hours. After the incubation the culture supernatants were collected in order to measure the released quantities of procollagen I, VEGF, and fibronectin by means of ELISA. Reference test compounds were vitamin C (procollagen I), PMA (VEGF), and TGF-β (fibronectin).
# [1] = tested on: lipid peroxides (C11-fluor) in NHEK cells; assay: Protection against UV-induced lipid peroxide in NHEK (C11-fluor probe, flow cytometry); type: cell-based, human
# Experimental: Pre-incubated NHEK were incubated with the test compound for 24 h. Then the specific fluorescence probe for the measurement of hydrogen peroxide (DHR) or lipid peroxides (C11-fluor) was added and incubated for 45 min. Irradiation occurred with in H2O2 determination UVB at 180 mJ/cm^2 (+UVA at 2839 mJ/cm^2) or UVB at 240 mJ/cm^2 (+UVA at 3538 mJ/cm^2) in lipid peroxide, respectively, using a SOL500 Sun Simulator lamp. After irradiation the cells were post-incubated for 30 min before flow-cytometry analysis.
# [2] = 240 mJ/cm^2 UVB (3538 mJ/cm^2 UVA), 100 μM
# [3] = 240 mJ/cm^2 UVB (3538 mJ/cm^2 UVA), 100 μM, single values
smiles,measurement,setting,value
"C[C@@H]1O[C@@H](Oc2cc(O)cc3c2C(=O)CC(c2ccc(O)cc2)O3)[C@H](O)[C@H](O)[C@H]1O (mixture of isomers) [NR1, Naringenin-5-O-α-L-rhamnoside]",% Glucose uptake (Rosiglitazone = 100%),HaCaT cells; 25 μM,87.7%
same,Mean (fluorescence),HaCaT cells; 25 μM,768005
same,Measure 1 (fluorescence),HaCaT cells; 25 μM,493970
same,Measure 2 (fluorescence),HaCaT cells; 25 μM,1160754
same,Measure 3 (fluorescence),HaCaT cells; 25 μM,649291
same,RFU specific,HaCaT cells; 25 μM,761691 RFU
same,% Glucose uptake (Rosiglitazone = 100%),HaCaT cells; 50 μM,29.6%
same,Mean (fluorescence),HaCaT cells; 50 μM,263881
same,Measure 1 (fluorescence),HaCaT cells; 50 μM,278134
same,Measure 2 (fluorescence),HaCaT cells; 50 μM,256310
same,Measure 3 (fluorescence),HaCaT cells; 50 μM,257198
same,RFU specific,HaCaT cells; 50 μM,257567 RFU
same,% Activation (STAT3; IFNγ = 100%),STAT3; 25 μM,58.47%
same,RLU 1,STAT3; 25 μM,10925 RLU
same,RLU 2,STAT3; 25 μM,8301 RLU
same,RLU 3,STAT3; 25 μM,8752 RLU
same,RLU MEAN,STAT3; 25 μM,9326 RLU
same,RLU specific,STAT3; 25 μM,7319 RLU
same,% Activation (STAT3; IFNγ = 100%),STAT3; 50 μM,69.97%
same,RLU 1,STAT3; 50 μM,18272 RLU
same,RLU 2,STAT3; 50 μM,6426 RLU
same,RLU 3,STAT3; 50 μM,7599 RLU
same,RLU MEAN,STAT3; 50 μM,10766 RLU
same,RLU specific,STAT3; 50 μM,8758 RLU
same,Cytokine [pg/mL] IL-8 Mean,IL-8; PMA stimulation,2564 pg/mL
same,IL-8 % stim. control,IL-8; PMA stimulation,88%
same,Cytokine [pg/mL] IL-8,IL-8; PMA stimulation,2572 pg/mL and 2555 pg/mL
same,Cytokine [pg/mL] IL-8 Mean,IL-8; poly(I:C) stimulation,3154 pg/mL
same,IL-8 % stim. control,IL-8; poly(I:C) stimulation,86%
same,Cytokine [pg/mL] IL-8,IL-8; poly(I:C) stimulation,3055 pg/mL and 3253 pg/mL
same,Mean VEGF,VEGF,92 pg/mL
same,VEGF % Control,VEGF,128%
same,VEGF,VEGF; single values,90 pg/mL and 94 pg/mL
same,C11-fluor (AU) Mean (1/GMFI),[1]; [2],4.3E−04 AU
same,lipid peroxide % Irradiated control,[1]; [2],93%
same,lipid peroxide Protection %,[1]; [2],9%
same,C11-fluor (AU) 1/GMFI,[1]; [3],4.1E−04 AU and 4.4E−04 AU
same,C11-fluor (AU) GMFI,[1]; [3],2414 AU and 2255 AU
same,anti-oxidative function on lipid peroxides,[1]; UV irradiation,anti-oxidative function
